Results published in US20170136102A1, “PHAGE-DERIVED COMPOSITIONS FOR IMPROVED MYC[…]” (priority 2014, published 2017).
Values after ≈ are worked out from the molar mass of the structure shown. Read-outs that look alike come from different tables or passages of the source.

What was measured:
Type in all cases: cell-based
M. smegmatis [1] = experiment: Broth checkerboard MIC, synergy of LysB with anti-TB drugs; details: for MIC: Mycolicibacterium smegmatis
M. bovis BCG = experiment: microbe, parasite or virus in culture; details: for FIC index: M. bovis BCG (Dubos), drug in combination with LysB, <0.5 indicates synergy; for MIC: Mycobacterium tuberculosis variant bovis BCG, BCG
M. smegmatis [2] = test system: M. smegmatis

With `CC[C@@H](CO)NCCN[C@@H](CC)CO` [Ethambutol] the FIC index (M. smegmatis [1]) was 0.06, the MIC (M. smegmatis [1]) was 2 µg/mL and the FIC index (M. bovis BCG) was 0.15. The MIC (M. bovis BCG) was 16 µg/mL (≈ 78.3 µM) and the “Log10 CFU reduction” value (M. smegmatis [2]; M. smegmatis, 24 hrs, Ethambutol group) was <1 Log10 CFU.

With `NNC(=O)c1ccncc1` [INH, Isoniazid] the FIC index (M. smegmatis [1]) was 0.13, the MIC (M. smegmatis [1]) was 8 µg/mL and the FIC index (M. bovis BCG) was 0.47. For the same compound, the MIC (M. bovis BCG) was 0.03 µg/mL (≈ 0.219 µM) and the “Log10 CFU reduction” value (M. smegmatis [2]; M. smegmatis, 24 hrs, INH group) was <1 Log10 CFU.

In the case of `CO[C@H]1/C=C/O[C@@]2(C)Oc3c(C)c(O)c4c(O)c(c(/C=N/N5CCN(C)CC5)c(O)c4c3C2=O)NC(=O)/C(C)=C\C=C\[C@H](C)[C@H](O)[C@@H](C)[C@@H](O)[C@@H](C)[C@H](OC(C)=O)[C@@H]1C` [Rifampicin], the FIC index (M. smegmatis [1]) is reported as 0.06, the MIC (M. smegmatis [1]) is reported as 4 µg/mL and the FIC index (M. bovis BCG) is reported as 0.37. For the same compound, the MIC (M. bovis BCG) was 0.004 µg/mL (≈ 0.00486 µM) and the “Log10 CFU reduction” value (M. smegmatis [2]) was <1 Log10 CFU.
